For series [1], the target named is T1, purified recombinant HIV-1 reverse transcriptase (Human immunodeficiency virus type 1 group M subtype B, UniProt P04585).
T1 construct: purified recombinant HIV-1 reverse transcriptase; made in house; host or cells: Escherichia coli
As to the kind of experiment: reverse transcriptase inhibition, poly(rA)/(dT) template primer, [3H]dTTP uptake. It counts as biochemical. The protocol:
The reverse transcriptase activity of each of the compounds synthesized in Examples was assayed by the following procedures.
Using the purified recombinant HIV-1 reverse transcriptase RT, E.C. 2.7.7.49) obtained by expression in Escherichia Coli, a 96-well plate assay system was established for assaying a large number of samples. The RT inhibitory activity was determined as follows. To 11 μl of a solution of the test inhibitor in water or MSO was added 100 μl of a reaction mixture (0.1 unit/100 μl RT, 50 mM Tris-HCl pH 8.3, 150 mM KCl, 10 mM MgCl2, 3 mM dithiothreitol, 0.1% Nonidet P-40, 10 μg/ml. poly(rA) and 10 μg/ml (dT)12-1.8 as template and primer, and 4 μM dTTP, 1 μCi/100 μl [^3 H]dTTP as substrate) and the mixture was incubated at 37° C. for 1 hour and, then, immediately cooled on ice. Using a cell harvester, the reaction mixture was transferred to a DEAE-filter mat (LKB-Pharmacia). Then, using the wash line of the cell harvester, the cells were washed twice with 5% Na2 HPO4 /H2 O and once with water and dried at 95° C. for 15 minutes. […] The inhibitory activity was expressed in percent inhibition relative to the uptake on water or DMSO control.

A further series deals with HIV (HTLV-IIIB strain). The series can be described thus: microbe, parasite or virus in culture. It counts as cell-based. The protocol:
The anti-HIV activity of each of the compounds produced in Examples was assayed by the following procedures. […] On the other hand, the test compound was diluted with the above culture medium to predetermined concentrations and distributed in 50 μl aliquots into a 96-well microtiter plate. Then, d suspension of MT-4 cells was added in 100 μl aliquots (3.5×10^4 cells per well) and then the above HIV-containing supernatant diluted with the above culture medium was added, 50 μl (60 pfu (plaque forming units)) per well. (2) The plate was incubated in a CO2 incubator at 37° C. for 5 days. Then, 30 μl/well of 3-(4,5-dimethyl thiazol-2-yl)-2,5-diphenyltetrazolium bromide (MTT) (5 mg/ml PBS) was added and the incubation was further continued for 1 hour. The surviving cells reducing MTT yield precipitation of formazan. Therefore, 150 μl portions of the culture supernatant were removed from all wells and, instead, 150 μl of a solution (10% Triton X-100 and 0.4% (v/v) HCl-added isopropyl alcohol) was added. The plate was shaken on a plate mixer to dissolve the formazan.

Series [2] in a line: cytotoxicity in MT-4 cells (MTT, culture medium in place of HIV). Conditions: human. Format: cell-based. As to the method: The anti-HIV activity of each of the compounds produced in Examples was assayed by the following procedures. (1) Human T cell line MOLT-4 clone 8 persistently infected by HIV (HTLV-IIIB strain) was cultured in an RPMI-1640 medium supplemented with 10% fetal calf serum, the culture supernatant was filtered, and the titer of virus was determined; the culture supernatant was stored at -80° C. On the other hand, the test compound was diluted with the above culture medium to predetermined concentrations and distributed in 50 μl aliquots into a 96-well microtiter plate. Then, d suspension of MT-4 cells was added in 100 μl aliquots (3.5×10^4 cells per well) and then the above HIV-containing supernatant diluted with the above culture medium was added, 50 μl (60 pfu (plaque forming units)) per well. (2) The plate was incubated in a CO2 incubator at 37° C. for 5 days. Then, 30 μl/well of 3-(4,5-dimethyl thiazol-2-yl)-2,5-diphenyltetrazolium bromide (MTT) (5 mg/ml PBS) was added and the incubation was further continued for 1 hour. The surviving cells reducing MTT yield precipitation of formazan. Therefore, 150 μl portions of the culture supernatant were removed from all wells and, instead, 150 μl of a solution (10% Triton X-100 and 0.4% (v/v) HCl-added isopropyl alcohol) was added. The plate was shaken on a plate mixer to dissolve the formazan. The OD of formazan was measured with a microreader at 560 nm arid 690 nm (reference wavelength) and the result was compared with that of control.
The cytotoxicity of each of the compounds produced in Examples was assayed. In place of the HIV-containing supernatant (the virus suspension) in (1) in Test Example 1, 50 μl of the culture medium was added to each well, and the cytotoxicity was determined in the same manner as that for (2) in Test Example 1.

[3] abbreviates: Human immunodeficiency virus 1, IIIB, MT4, 120 h, MT-4 cells, 60 pfu HIV per well, 37° C., 5 days, MTT, Tables 1 and 2, read-out: EC50.
Where [4] appears, read: MT-4 cells, no virus, 37° C., 5 days, MTT, Table 3, read-out: CC50.
[5] abbreviates: Human immunodeficiency virus 1, IIIB, MT4, 120 h.

Values after ≈ are worked out from the molar mass of the structure shown. Read-outs that look alike come from different tables or passages of the source.

We go through 22 compounds from patent US6147097A, “Imidazole derivatives as anti-HIV agents” (Shionogi & Co., Ltd., priority 1994, dated 2000).

The term EC50 denotes the concentration giving half of the maximal effect. Usually CC50 stands for the concentration that lowers cell viability or growth by half. Usually IC50 stands for the concentration that gives 50% inhibition.

As to “2-aminoethyl-1-n-butyl-5-(3,5-dichlorophenylthio)-4-isopropyl-1H-imidazole [Compound I-68]”, the “RT IC50” value in series [1] (pH 8.3, 37° C., 1 hour, Tables 5 and 6) was found to be 0.61 µg/mL. The compound further displayed an EC50 in the series on HIV (HTLV-IIIB strain) (MT-4 cells, 60 pfu HIV per well, 37° C., 5 days, MTT, Tables 1 and 2) of 16 ng/mL.
In turn, `CC(C)c1nc(CO)n(Cc2ccc([N+](=O)[O-])cc2)c1Sc1cc(Cl)cc(Cl)c1` [Compound 103a, 5-(3,5-dichlorophenylthio)-2-hydroxymethyl-4-isopropyl-1-(p-nitrobenzyl)-1H-imidazole] had a cytotoxic concentration (CC50) at 120 h in series [2] (mt-4 cells) of 6.3 to 12.5 µg/mL (≈ 13.9 to 27.6 µM). The IC50 in series [1] is 28.7 µM. Besides, the 50% effective concentration (EC50) in the series with HIV (HTLV-IIIB strain) (setting [3]) was less than 8 ng/mL.
The corresponding values for `CC(C)c1nc(CO)n(Cc2cccc([N+](=O)[O-])c2)c1Sc1cc(Cl)cc(Cl)c1` [Compound 103b, 5-(3,5-dichlorophenylthio)-2-hydroxymethyl-4-isopropyl-1-(m-nitrobenzyl)-1H-imidazole] are 50 µg/mL (≈ 111 µM), 25 µM and 8 ng/mL (≈ 0.0177 µM).
The corresponding values for `CC(C)c1nc(CO)n(Cc2ccccc2[N+](=O)[O-])c1Sc1cc(Cl)cc(Cl)c1` [Compound 103c, 5-(3,5-dichlorophenylthio)-2-hydroxymethyl-4-isopropyl-1-(o-nitrobenzyl)-1H-imidazole] are 6.3 to 12.5 µg/mL (≈ 13.9 to 27.6 µM), 57.9 µM and 60 to 130 ng/mL (≈ 0.133 to 0.287 µM).
The corresponding values for `CC(C)c1nc(CO)n(Cc2ccc(N)cc2)c1Sc1cc(Cl)cc(Cl)c1` [Compound 104a, 1-(p-aminobenzyl)-5-(3,5-dichlorophenylthio)-2-hydroxymethyl-4-isopropyl-1H-imidazole] are 12.5 to 25 µg/mL (≈ 29.6 to 59.2 µM), 3.08 µM and less than 8 ng/mL.
Take `CC(C)c1nc(CO)n(Cc2cnc3ccccc3c2)c1Sc1cc(Cl)cc(Cl)c1` [Compound 109, 2-hydroxymethyl-5-(3,5-dichlorophenylthio)-4-isopropyl-1-(quinolin-3-ylmethyl)-1H-imidazole]: in series [2] (mt-4 cells), the half-maximal cytotoxic concentration (CC50) at 120 h was 100 µg/mL (≈ 218 µM). Also, the IC50 in series [1] was 4.36 µM. Also, in the series with HIV (HTLV-IIIB strain) (setting [3]), the EC50 was 8 ng/mL (≈ 0.0175 µM).
In series [2] (mt-4 cells), `CC(C)c1nc(CO)n(CCc2ccccn2)c1Sc1cc(Cl)cc(Cl)c1` [Compound 112a, 5-(3,5-dichlorophenylthio)-4-isopropyl-2-hydroxymethyl-1-(2-(2-pyridyl)ethyl)-1H-imidazole] had a CC50 at 120 h of 6.3 µg/mL (≈ 14.9 µM). In addition, the IC50 in series [1] was 2.27 µM. In addition, in the series with HIV (HTLV-IIIB strain) (setting [3]), the EC50 came to 8 ng/mL (≈ 0.0189 µM).
`CC(C)c1nc(CO)n(CCCc2ccccn2)c1Sc1cc(Cl)cc(Cl)c1` [Compound 112b, 5-(3,5-dichlorophenylthio)-4-isopropyl-2-hydroxymethyl-1-(3-(2-pyridyl)propyl)-1H-imidazole] yielded a half-maximal cytotoxic concentration (CC50) at 120 h in series [2] (mt-4 cells) of 6.3 to 12.5 µg/mL (≈ 14.4 to 28.6 µM). Moreover, the half-maximal inhibitory concentration (IC50) in series [1] was 5.96 µM. The half-maximal effective concentration (EC50) in the series with HIV (HTLV-IIIB strain) (setting [3]) was less than 8 ng/mL.
The corresponding values for `CC(C)c1nc(CO)n(Cc2ccc(=O)[nH]c2)c1Sc1cc(Cl)cc(Cl)c1` [Compound 116a, 5-(3,5-dichlorophenylthio)-2-hydroxymethyl-1-(6-oxo-1,6-dihydro-pyridin-3-yl)methyl-4-isopropyl-1H-imidazole] are 30.7 µg/mL (≈ 72.3 µM), 3.06 µM and 4 ng/mL (≈ 0.00943 µM).
On to `CC(C)c1nc(CO)n(CC(=O)c2ccccc2)c1Sc1cc(Cl)cc(Cl)c1` [Compound I-31, [1-benzoylmethyl-5-(3,5-dichlorophenylthio)-4-isopropyl-1H-imidazol-2-yl]methanol], for which the CC50 at 120 h in series [2] (setting [4]) came out at 100 µg/mL (≈ 230 µM). Further, the EC50 with HIV (HTLV-IIIB strain) (setting [3]) amounted to 60 ng/mL (≈ 0.138 µM).
For the compound `CCn1c(COC(N)=O)nc(C(C)C)c1Sc1cccc([N+](=O)[O-])c1` [Compound I-49, 2-carbamoyloxymethyl-1-ethyl-4-isopropyl-5-(3-nitrophenylthio)-1H-imidazole], the CC50 at 120 h in series [2] (setting [4]) amounted to 25 µg/mL (≈ 68.6 µM). Further, in the series with HIV (HTLV-IIIB strain) (setting [5]), the EC50 lay in the range of 4 to 8 ng/mL (≈ 0.011 to 0.022 µM).
As for `CCCn1c(COC(N)=O)nc(C(C)C)c1Sc1cccc([N+](=O)[O-])c1` [Compound I-50, 2-carbamoyloxymethyl-4-isopropyl-5-(3-nitrophenylthio)-1-n-propyl-1H-imidazole], the CC50 at 120 h in series [2] (setting [4]) was greater than 100 µg/mL. The EC50 with HIV (HTLV-IIIB strain) (setting [3]) came out at 8 ng/mL (≈ 0.0211 µM).
As to `CC(C)c1nc(COC(N)=O)n(Cc2ccccn2)c1Sc1cc(Cl)cc(Cl)c1` [Compound I-93], the CC50 at 120 h in series [2] (setting [4]) came out at 12.5 µg/mL (≈ 27.7 µM). In addition, the EC50 in the series on HIV (HTLV-IIIB strain) (setting [5]) fell in the range of 0.5 to 1 ng/mL (≈ 0.00111 to 0.00222 µM).
Regarding `CC(C)c1nc(CO)n(C)c1[S+]([O-])c1cc(Cl)cc(Cl)c1` (stereo not shown) [Compound I-108, [5-(3,5-dichlorophenylsulfinyl)-4-isopropyl-1-methyl-1H-imidazol-2yl]methanol], the CC50 at 120 h in series [2] (setting [4]) was in the range of 10 to 100 µg/mL (≈ 28.8 to 288 µM). The EC50 in the series on HIV (HTLV-IIIB strain) (setting [3]) was 1000 ng/mL (≈ 2.88 µM).
The corresponding values for `CC(C)c1nc(CO)n(C)c1S(=O)(=O)c1cc(Cl)cc(Cl)c1` [Compound I-109, [5-(3,5-dichlorophenylsulfonyl)-4-isopropyl-1-methyl-1H-imidazol-2-yl]methanol] are greater than 100 µg/mL and 500 ng/mL (≈ 1.38 µM).
The corresponding values for `CC(C)c1nc(CN)n(C)c1[S+]([O-])c1cc(Cl)cc(Cl)c1` (stereo not shown) [Compound I-110, 2-aminomethyl-5-(3,5-dichlorophenylsulfinyl)-4-isopropyl-1-methyl-1H-imidazole] are 10 to 100 µg/mL (≈ 28.9 to 289 µM) and 10000 ng/mL (≈ 28.9 µM).
Taken in the same sequence, the figures for `CC(C)c1nc(CNC(=O)C(F)(F)F)n(C)c1[S+]([O-])c1cc(Cl)cc(Cl)c1` (stereo not shown) [Compound I-112, 5-(3,5-dichlorophenylsulfinyl)-4-isopropyl-1-methyl-2-trifluoroacetylaminomethyl-1H-imidazole] were greater than 100 µg/mL and greater than 100000 ng/mL.
`CC(C)c1nc(CO)[nH]c1[S+]([O-])c1cc(Cl)cc(Cl)c1` (stereo not shown) [Compound I-113, [5-(3,5-dichlorophenylsulfinyl)-4-isopropyl-1H-imidazol-2-yl]methanol]: the CC50 at 120 h in series [2] (setting [4]) stood at 100 µg/mL (≈ 300 µM). Also, the EC50 with HIV (HTLV-IIIB strain) (setting [3]) was 100000 ng/mL (≈ 300 µM).
Taken in the same sequence, the figures for `CC(C)c1nc(CO)[nH]c1S(=O)(=O)c1cc(Cl)cc(Cl)c1` [Compound I-114, [5-(3,5-dichlorophenylsulfonyl)-4-isopropyl-1H-imidazol-2-yl]methanol] were 10 to 100 µg/mL (≈ 28.6 to 286 µM) and 10000 ng/mL (≈ 28.6 µM).
In turn, `CC(C)c1nc(COC(N)=O)n(Cc2ccc[nH]c2=O)c1Sc1cc(Cl)cc(Cl)c1` [Compound I-132, 2-carbamoyloxymethyl-5-(3,5-dichlorophenylthio)-1-(2-oxo-1,2-dihydro-pyridin-3-yl)methyl-4-isopropyl-1H-imidazole] displayed a CC50 at 120 h in series [2] (mt-4 cells) of 12.5 to 25 µg/mL (≈ 26.7 to 53.5 µM). In series [1], the 50% inhibitory concentration (IC50) is 1.39 µM.
The corresponding values for `CC(C)c1nc(CCOC(N)=O)n(Cc2ccccc2N)c1Sc1cc(Cl)cc(Cl)c1` [Compound I-144, l-(o-aminobenzyl)-2-(2-carbamoyloxyethyl)-5-(3,5-dichlorophenylthio)-4-isopropyl-1H-imidazole] are 6.3 to 12.5 µg/mL (≈ 13.1 to 26.1 µM) and greater than 209 µM.
`CC(C)c1nc(COC(N)=O)n(Cc2ccncc2)c1Sc1cc(Cl)cc(Cl)c1` [I-93', 2-carbamoyloxymethyl-5-(3,5-dichlorophenylthio)-4-isopropyl-1-(pyridin-4-yl)methyl-1H-imidazole]: the CC50 at 120 h in series [2] (setting [4]) lay within 10 to 100 µg/mL (≈ 22.2 to 222 µM). The compound also returned an EC50 with HIV (HTLV-IIIB strain) (setting [5]) of 0.06 to 0.13 ng/mL (≈ 0.000133 to 0.000288 µM).
